{"source": "patent US12319752B2", "about": "“Heparin-binding cationic peptide self-assembling peptide amphiphiles useful against drug-resistant bacteria” (priority 2016, dated 2025)", "key": {"[1]": {"tested_on": "MRSA", "type": "cell-based, methicillin-resistant S. aureus (MRSA, ATCC #43300)", "settings": "24 h", "procedure": "(§1) This assay was performed to investigate the inhibitory effects of each peptide against Gram-positive Staphylococcus aureus (S. aureus, ATCC #25923) and methicillin-resistant S. aureus (MRSA, ATCC #43300), as well as Gram-negative Escherichia coli (E. coli, ATCC #25922), and multidrug-resistant E. coli (MDR E. coli, ATCC #BAA-2471). In all experiments, solutions of each peptide at the concentrations from 20 μM to 100 μM in 3% Tryptic Soy Broth (TSB) media were freshly prepared. A single colony of bacteria was isolated from a stock agar plate and cultured overnight in 4 mL of 3% TSB on a shaking incubator set at 200 rpm and 37° C. […] The bacteria were incubated inside a spectrophotometer (Spectra-Max Paradigm, Molecular Devices, Sunnyvale, CA) at 37° C. under static conditions for 20 h, and the bacterial growth curves were measured in terms of turbidity at OD562 every 2 minutes. The normalized OD562 values of samples were calculated by subtracting the […].\n(§2) The minimum inhibitory concentration (MIC) of ACA-PA was tested against drug-resistant bacteria and compared with conventional penicillin-streptomycin (10,000 U/mL, Thermo Fisher Scientific, Waltham, MA, USA) as well. […] The OD562 was measured at the end of treatment. […]"}, "[2]": {"tested_on": "MDR E. coli", "type": "cell-based, multidrug-resistant E. coli (MDR E. coli, ATCC #BAA-2471)", "settings": "24 h", "procedure": "as §1, §2"}, "[3]": {"tested_on": "MRSA", "test": "Live/dead bacterial viability assay", "type": "cell-based, methicillin-resistant S. aureus (MRSA)", "settings": "4 h", "from_the_text": "To further investigate bacteria viability after treatment with ACA-PA, the live/dead assay was used to confirm the antibacterial actions of ACA-PA. Dead bacteria with disrupted membrane were stained a first color, whereas live bacteria were stained with a second color fluorescence. A large amount of robust MRSA bacteria in the untreated control sample appeared a second color and in spherical shapes (FIG. 10A). […] This antibacterial activity was dependent on the concentration of PA, yet was not determined by peptide self-assembly. Nonetheless, Gram-negative MDR E. coli responded to the treatment of ACA-PA differently from Gram-positive MRSA.\nThe live/dead bacterial viability assay was conducted to further assess the bactericidal efficacy of ACA-PA using the LIVE/DEAD BacLight Bacterial Viability Kits (Kits 71007, Molecular Probes, Eugene, OR, USA). MRSA and MDR E. coli bacteria (100 μl, 10^6 CFU/mL) were incubated with 80 μM and 40 μM of peptide in 3% TSB media at 37° C. for 4 h on a 96-well plate, and the control samples of bacteria were incubated in 3% TSB media only. […] The live bacteria stained fluorescent a second color (SYTO9 nucleic acid stain), whereas the dead bacteria with disrupted membranes stained fluorescent a first color (propidium iodide, PI)."}, "[4]": {"tested_on": "MDR E. coli", "test": "Bacterial membrane disruption by TEM of ultrathin sections", "type": "cell-based, multidrug-resistant E. coli (MDR E. coli)", "settings": "4 h", "procedure": "(§3) TEM was used to reveal the damage in bacterial cell envelopes caused by ACA-PA treatment. Drug-resistant bacterial strains (MRSA and MDR E. coli) were exposed to ACA-PA at concentrations below (40 μM) and above (80 μM) the CMC, and ultrathin sections of the bacterial cultures were visualized by TEM.\n(§4) The ACA-PA at a concentration lower than CMC seemed to only influenced the outer bacteria membrane, but were inadequate to disrupt the inner bacteria membranes.\n(§5) Bacterial membrane disruption was observed from the ultrathin sectioned sample using TEM. […] After treatment with 80 μM ACA nanorods, bacterial cell membranes were severely damaged with complete cytoplasm leakage. […] On the damaged membranes, blisters appeared to originate from the pores. This explains the reason for the different antibacterial activity of ACA-PA on Gram-negative bacteria compared to the concentration-dependent toxicity on Gram-positive bacteria. The cell envelope of Gram-positive has a cytoplasmic membrane surrounded by a thick peptidoglycan layer with lipoteichoic acid. The antibacterial ACA-PA could penetrate the Gram-positive bacterial membrane by charge and hydrophobicity, although the PA were in a dispersed, non-assembled form. However, such dispersed PA were not able to penetrate the outer membrane of Gram-negative bacteria. […]"}, "[5]": {"tested_on": "MRSA", "test": "Bacterial membrane disruption by TEM of ultrathin sections", "type": "cell-based, methicillin-resistant S. aureus (MRSA)", "settings": "4 h", "procedure": "as §3, §4, §5"}}, "note": "Residues, ends and D or L forms follow the SMILES beside them. *: point of attachment. Palmitoyl = CCCCCCCCCCCCCCCC(=O)*", "data": [{"smiles": "CCCCCCCCCCCCCCCC(=O)N[C@H](C(=O)N[C@H](C(=O)N[C@H](C(=O)N[C@H](C(=O)N[C@@H](CCCCN)C(=O)N[C@@H](CCCCN)C(=O)N[C@@H](CCCCN)C(=O)N[C@@H](CCCCN)C(=O)NCC(=O)N[C@@H](C)C(=O)N[C@@H](CCCCN)C(=O)N[C@@H](CCCCN)C(=O)N[C@@H](C)C(=O)N[C@@H](CCCNC(=N)N)C(=O)N[C@@H](C)C(=O)N[C@@H](C)C(=O)N[C@@H](CCCCN)C(=O)N[C@@H](CCCCN)C(=O)N[C@@H](C)C(=O)N[C@@H](CCCNC(=N)N)C(=O)N[C@@H](C)C(=O)O)C(C)C)C(C)C)C(C)C)C(C)C", "note": "[ACA-PA, C16-V4K4G(AKKARA)2 (SEQ ID NO: 7)] (Palmitoyl-VVVVKKKKGAKKARAAKKARA-OH; N-terminus and C-terminus assumed)", "values": [{"measurement": "Minimum inhibitory concentration (MIC)", "setting": "[1]", "result": 300, "unit": "µg/mL"}, {"measurement": "Minimum inhibitory concentration (MIC)", "setting": "[2]", "result": 400, "unit": "µg/mL"}, {"measurement": "bacterial viability (live/dead staining)", "setting": "[3]; 40 μM", "result": "markedly reduced MRSA viability"}, {"measurement": "bacterial viability (live/dead staining)", "setting": "[3]; 80 μM", "result": "coverage of dead bacteria increased with low density of live bacteria"}, {"measurement": "bacterial membrane disruption (TEM)", "setting": "[4]; 40 μM", "result": "blisters only on the outer cell walls"}, {"measurement": "bacterial membrane disruption (TEM)", "setting": "[4]; 80 μM", "result": "disrupted bacteria envelopes with loosened and disconnected membranous structures"}, {"measurement": "bacterial membrane disruption (TEM)", "setting": "[5]; 40 μM", "result": "partially damaged"}, {"measurement": "bacterial membrane disruption (TEM)", "setting": "[5]; 80 μM", "result": "localized disruption on the cell membrane and complete leakage of the cytoplasm"}]}]}
